Assay results as given in patent US20230074892A1, “BACTERIOPHAGE COMPOSITIONS AND USES THEREOF” (YALE UNIVERSITY, priority 2019, published 2023).

Legend:
P. aeruginosa bacteria = test: Pyocyanin level in culture supernatant after treatment; type: cell-based; details: for bacteria pyocyanin relative to untreated control: single treatment, culture supernatant
Method: Shown is bacteria pyocyanin relative to untreated control. […] When P. aeruginosa bacteria are exposed to treatments along x-axis, the supernatant of the culture is tested for pyocyanin level.

PA14 = test: Pyocyanin production in bacterial cultures; type: cell-based, Pseudomonas aeruginosa; details: antibiotic alone
Description: Deletion of type-IV pili is shown to attenuate virulence in P. aeruginosa, by impairing pyocyanin production, twitching motility, and biofilm formation (Persat et al. (2015) Proc. Natl. Acad. Sci. 112:7563-7568). Phage TIVP-H6 selects for phage resistance in P. aeruginosa via bacterial alteration or loss of type-IV pili.

Question: Which “bacteria pyocyanin relative to untreated control” value (P. aeruginosa bacteria) does the source give for CC1(C)S[C@@H]2[C@H](NC(=O)C(C(=O)O)c3ccccc3)C(=O)N2[C@H]1C(=O)O (stereo partly drawn) [Carbenicillin] here?
Answer: Its value is “do not reducte production”.

Question: How did the “effect of antibiotic on pyocyanin production” value (PA14) turn out when O=C(O)c1cn(C2CC2)c2cc(N3CCNCC3)c(F)cc2c1=O [Ciprofloxacin] was run?
Answer: Its value is “either increased or did not affect”.

Question: What about the “bacteria pyocyanin relative to untreated control” value (P. aeruginosa bacteria) of the same compound?
Answer: Its value is “do not reducte production”.

Question: What does the source list for CC[C@H]1OC(=O)[C@H](C)[C@@H](O[C@H]2C[C@@](C)(OC)[C@@H](O)[C@H](C)O2)[C@H](C)[C@@H](O[C@@H]2O[C@H](C)C[C@H](N(C)C)[C@H]2O)[C@](C)(O)C[C@@H](C)C(=O)[C@H](C)[C@@H](O)[C@]1(C)O [Eythromycin]?
Answer: killing of bacteria in the pyocyanin assay (P. aeruginosa bacteria): does not kill bacteria in this assay; bacteria pyocyanin relative to untreated control (P. aeruginosa bacteria): causes reduced pyocyanin production

Question: For CCn1cc(C(=O)O)c(=O)c2ccc(C)nc21 [Nalidixic acid], which “bacteria pyocyanin relative to untreated control” value (P. aeruginosa bacteria) is on record?
Answer: The value was “do not reducte production”.
